One block for each substance: values may come before it.
How the values were obtained:
Test in all cases: Histone peptide microarray
Type in all cases: binding, human
[1] = test system: AIRE (PP); details: AIRE (PP)
How it was run: (§1)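 Using an optimized microarray protocol, purified GST-tagged PHD fingers were incubated at 0.5 μM on 293 histone peptides with single or multiple modifications, and array signal was recorded as the average of 4 replicates.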

[2] = test system: BAZ2B; details: BAZ2B
How it was run: as §1

[3] = test system: BPTF (PB); details: BPTF (PB)
How it was run: as §1

[4] = test system: CHD4 (PPCC); details: CHD4 (PPCC)
How it was run: as §1

[5] = test system: CHD5 (PCC); details: CHD5 (PCC)
How it was run: as §1

[6] = test system: CHD5 (PPCC); details: CHD5 (PPCC)
How it was run: as §1

[7] = test system: DIDO1
How it was run: as §1

[8] = test system: DPF2 (PPC2W2); details: DPF2 (PPC2W2)
How it was run: as §1

[9] = test system: ING1
How it was run: as §1

[10] = test system: ING2
How it was run: as §1

[11] = test system: ING3
How it was run: as §1

[12] = test system: ING4
How it was run: as §1

[13] = test system: ING5
How it was run: as §1

[14] = test system: KDM4C (TTP); details: KDM4C (TTP)
How it was run: as §1

[15] = test system: KDM5A (1); details: KDM5A (1)
How it was run: as §1

[16] = test system: KDM5A (3); details: KDM5A (3)
How it was run: as §1

[17] = test system: KDM5B (1); details: KDM5B (1)
How it was run: as §1

[18] = test system: KDM5B (3); details: KDM5B (3)
How it was run: as §1

[19] = test system: KDM7A; details: KDM7A
How it was run: as §1

[20] = test system: MLL5
How it was run: as §1

[21] = test system: MORC3 (CW); details: MORC3 (CW)
How it was run: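 Steps: express and purify GST-tagged PHD reader; incubate 0.5 μM protein on a peptide microarray (293 histone peptides, single or combined PTMs) following an optimized protocol; average signal across 4 replicates.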

[22] = test system: PHF13
How it was run: as §1

[23] = test system: PHF21A; details: PHF21A
How it was run: as §1

[24] = test system: PHF23
How it was run: as §1

[25] = test system: PHF2
How it was run: as §1

[26] = test system: PHF8
How it was run: as §1

[27] = test system: PHRF1 (RP); details: PHRF1 (RP)
How it was run: as §1

[28] = test system: RAG2
How it was run: as §1

[29] = test system: SP140L; details: SP140L
How it was run: as §1

[30] = test system: TAF3
How it was run: as §1

[31] = test system: TRIM66 (PB); details: TRIM66 (PB)
How it was run: as §1

[32] = GST-tagged, arrays performed twice, n of 4
[33] = sheet "Array Heatmap", each array performed twice, total n = 4

- Array Heatmap value (peptide array binding signal) [1, 32]: 0.5662
- Array Heatmap value (peptide array binding signal) [2, 32]: 0.4714
- Array Heatmap value (peptide array binding signal) [3, 32]: 0.3517
- Array Heatmap value (peptide array binding signal) [4, 32]: 0.551
- Array Heatmap value (peptide array binding signal) [5, 32]: 0.8034
- Array Heatmap value (peptide array binding signal) [6, 32]: 0.5854
- Array Heatmap value (peptide array binding signal) ([7]; DIDO1, GST-tagged, arrays performed twice, n of 4): 0.6312
- Array Heatmap value (peptide array binding signal) [8, 32]: 0.6807
- Array Heatmap value (peptide array binding signal) ([9]; ING1, GST-tagged, arrays performed twice, n of 4): 0.5183
- Array Heatmap value (peptide array binding signal) ([10]; ING2, GST-tagged, arrays performed twice, n of 4): 0.5873
- Array Heatmap value (peptide array binding signal) ([11]; ING3, GST-tagged, arrays performed twice, n of 4): 0.4856
- Array Heatmap value (peptide array binding signal) ([12]; ING4, GST-tagged, arrays performed twice, n of 4): 0.4756
- Array Heatmap value (peptide array binding signal) ([13]; ING5, GST-tagged, arrays performed twice, n of 4): 0.3695
- Array Heatmap value (peptide array binding signal) [14, 32]: 0.5523
- Array Heatmap value (peptide array binding signal) [15, 32]: 0.4957
- Array Heatmap value (peptide array binding signal) [16, 32]: 0.4472
- Array Heatmap value (peptide array binding signal) [17, 32]: 0.6318
- Array Heatmap value (peptide array binding signal) [18, 32]: 0.5165
- Array Heatmap value (peptide array binding signal) [19, 32]: 0.4235
- Array Heatmap value (peptide array binding signal) ([20]; MLL5, GST-tagged, arrays performed twice, n of 4): 0.528
- Array Heatmap value (peptide array binding signal) [21, 32]: 0.3673
- Array Heatmap value (peptide array binding signal) ([22]; PHF13, GST-tagged, arrays performed twice, n of 4): 0.6182
- Array Heatmap value (peptide array binding signal) [23, 32]: 0.4994
- Array Heatmap value (peptide array binding signal) ([24]; PHF23, GST-tagged, arrays performed twice, n of 4): 0.5198
- Array Heatmap value (peptide array binding signal) ([25]; PHF2, GST-tagged, arrays performed twice, n of 4): 0.4759
- Array Heatmap value (peptide array binding signal) ([26]; PHF8, GST-tagged, arrays performed twice, n of 4): 0.3992
- Array Heatmap value (peptide array binding signal) [27, 32]: 0.424
- Array Heatmap value (peptide array binding signal) ([28]; RAG2, GST-tagged, arrays performed twice, n of 4): 0.2557
- Array Heatmap value (peptide array binding signal) [29, 32]: 0.3819
- Array Heatmap value (peptide array binding signal) ([30]; TAF3, GST-tagged, arrays performed twice, n of 4): 0.2841
- Array Heatmap value (peptide array binding signal) [31, 32]: 0.5724
Substance: H4K5ac + K8ac: H4 1-23

Substance: H4K5ac + K8me1 + K12ac + K16ac: H4 1-23
- Array Heatmap value (peptide array signal) [1, 33]: 0.5672
- Array Heatmap value (peptide array signal) [2, 33]: 0.5032
- Array Heatmap value (peptide array signal) [3, 33]: 0.382
- Array Heatmap value (peptide array signal) [4, 33]: 0.5762
- Array Heatmap value (peptide array signal) [5, 33]: 0.8607
- Array Heatmap value (peptide array signal) [6, 33]: 0.5973
- Array Heatmap value (peptide array signal) ([7]; DIDO1, sheet "Array Heatmap", each array performed twice, total n = 4): 0.7292
- Array Heatmap value (peptide array signal) [8, 33]: 0.6672
- Array Heatmap value (peptide array signal) ([9]; ING1, sheet "Array Heatmap", each array performed twice, total n = 4): 0.5458
- Array Heatmap value (peptide array signal) ([10]; ING2, sheet "Array Heatmap", each array performed twice, total n = 4): 0.602
- Array Heatmap value (peptide array signal) ([11]; ING3, sheet "Array Heatmap", each array performed twice, total n = 4): 0.4952
- Array Heatmap value (peptide array signal) ([12]; ING4, sheet "Array Heatmap", each array performed twice, total n = 4): 0.5013
- Array Heatmap value (peptide array signal) ([13]; ING5, sheet "Array Heatmap", each array performed twice, total n = 4): 0.3988
- Array Heatmap value (peptide array signal) [14, 33]: 0.5456
- Array Heatmap value (peptide array signal) [15, 33]: 0.5072
- Array Heatmap value (peptide array signal) [16, 33]: 0.4998
- Array Heatmap value (peptide array signal) [17, 33]: 0.7009
- Array Heatmap value (peptide array signal) [18, 33]: 0.4848
- Array Heatmap value (peptide array signal) [19, 33]: 0.4269
- Array Heatmap value (peptide array signal) ([20]; MLL5, sheet "Array Heatmap", each array performed twice, total n = 4): 0.5641
- Array Heatmap value (peptide array signal) [21, 33]: 0.4169
- Array Heatmap value (peptide array signal) ([22]; PHF13, sheet "Array Heatmap", each array performed twice, total n = 4): 0.643
- Array Heatmap value (peptide array signal) [23, 33]: 0.4984
- Array Heatmap value (peptide array signal) ([24]; PHF23, sheet "Array Heatmap", each array performed twice, total n = 4): 0.5588
- Array Heatmap value (peptide array signal) ([25]; PHF2, sheet "Array Heatmap", each array performed twice, total n = 4): 0.5076
- Array Heatmap value (peptide array signal) ([26]; PHF8, sheet "Array Heatmap", each array performed twice, total n = 4): 0.4058
- Array Heatmap value (peptide array signal) [27, 33]: 0.4565
- Array Heatmap value (peptide array signal) ([28]; RAG2, sheet "Array Heatmap", each array performed twice, total n = 4): 0.2535
- Array Heatmap value (peptide array signal) [29, 33]: 0.3759
- Array Heatmap value (peptide array signal) ([30]; TAF3, sheet "Array Heatmap", each array performed twice, total n = 4): 0.2847
- Array Heatmap value (peptide array signal) [31, 33]: 0.6845
